Laboratory results taken from patent US20260325661A1, “ANTIBODY-CONJUGATED IMMUNO-ACTIVATING SMALL MOLECULE COMPOUND, AND USE” (SHENZHEN CONJUGENIX PHARMACEUTICAL TECHNOLOGY CO., LTD, priority 2023, published 2026).
Like-named read-outs stand apart in the source and are kept apart here.

Test system: human peripheral blood mononuclear cells (PBMCs)
Assay: ELISA assay of immunocyte activator: induction of IFN-γ in human PBMCs
Type: cell-based
Conditions: 24 h, 37 °C, read-out: EC50 IFN-γ ratio (inducing human PBMCs to produce IFN-γ)
Procedure: The immune activity of each compound is represented by the function of inducing human peripheral blood mononuclear cells (PBMCs) to produce the immune cytokine IFN-γ by, and the EC50 values thereof are shown in Table 3.
• 1) Peripheral blood samples from healthy human volunteer were collected into heparin anticoagulant tubes to reach 5 mL of fresh blood, and PBS was added at a ratio of 1:1 to dilute the blood (2 mL+2 mL in conventional blood collection tubes). • 2) 5 mL of lymphocyte separation medium was put in a 15 mL sterile centrifuge tube for use. • 3) The diluted blood was aspirated and slowly added from 1 cm above the separation medium along the tube wall, so that the diluted blood overlaid the separation medium and formed a distinct interface therewith. • 4) The centrifuge tube was centrifuged at 2000 rpm at room temperature for 20 min. Now five layers formed in the centrifuge tube: the top layer was plasma layer, and the layer between the plasma layer and the lymphocyte separation medium was the lymphocyte layer as a white film. • 5) The mononuclear cell layer as a white film in the middle was aspirated carefully and mononuclear cells were aspirated as many as possible. The mononuclear cells were washed by more than 5 volumes of PBS twice, and each time, the mononuclear cells were centrifuged at 1500 rpm for 10 min. • 6) The supernatant was removed, then 1 mL of 1640 medium was added and mixed uniformly. A small amount of the mixture was taken for cell counting.
The prepared PBMCs were plated in a 96-well plate (Costar, 3894) (2×10^5 cells per well). Each compound in Table 3 was taken and added into the wells with plated cells at ten concentrations with uniform gradient distribution (0.0001-10 μM, diluted with […] medium containing […]).

[1] = Homo sapiens, PBMC, no pretreatment marked
[2] = Homo sapiens, PBMC, Note a: sample pretreated with human liver microsomal enzyme, 2 h
[3] = Note a: sample pretreated with human liver microsomal enzyme, 2 h

Compound	EC50 [1] [nM]	further results
COCCOc1nc(N)c2[nH]c(=O)n(Cc3ccc(CNC(=O)CCC(=O)NC(CCCCc4cn(CCOCCOCCOCCN=C=S)nn4)C(=O)NCCOCCOCCOCCNC(=O)OC4CC/C=C/CCC4)cc3)c2n1 (stereo not shown) [Compound K48]	89	–
CCCCOc1nc(N)c2[nH]c(=O)n(Cc3cn(CCOCCOCCOCCn4cc(CCCCN(C[C@H](C)c5ccc(-c6c(O)cc(C)c7[nH]c(=O)c8sccc8c67)cc5)C(=O)OCc5ccc(NC(=O)[C@H](CCCNC(N)=O)NC(=O)[C@@H](NC(=O)CCCCCN6C(=O)C=CC6=O)C(C)C)cc5)nn4)nn3)c2n1 [Compound K19]	80	–
CCCCOc1nc(N)c2[nH]c(=O)n(Cc3cn(CCOCCOCCOCC(=O)N[C@H](CCCCNC(=O)OCc4ccc(NC(=O)[C@H](CCCNC(N)=O)NC(=O)[C@@H](NC(=O)CCCCCN5C(=O)C=CC5=O)C(C)C)cc4)C(=O)NCCOCCOCCOCCOCCNC(=O)CCC(=O)N4Cc5ccccc5C#Cc5ccccc54)nn3)c2n1 [Compound K7]	45	–
CCC[C@H](C)Oc1nc(N)c2c(n1)n(CC1CC[N+]([O-])(CCO)CC1)c(=O)n2C(=O)NCCNC(=O)OCc1ccc(NC(=O)[C@H](CCCNC(N)=O)NC(=O)[C@@H](NC(=O)CCOCCOCCOCCOCCNC(=O)CCC(=O)N2Cc3ccccc3C#Cc3ccccc32)C(C)C)cc1 (stereo partly shown) [Compound K63]	–	EC50 [2]: 80 nM
C=C(COC(=O)n1c(=O)n(CCCc2cn(CCOCCOCCOCCOCCN=[N+]=[N-])nn2)c2nc(OCCCC)nc(N)c21)C(=O)OCC [Compound K44]	–	EC50 (Homo sapiens, PBMC, pH 6, 24 h, Note b: sample pretreated with equimolar glutathione, PBS pH 6, 37 °C): 2 nM
C=C(CC(=O)OC)C(=O)NCc1ccc(Cn2c(=O)[nH]c3c(N)nc(OCCOC)nc32)cc1 [SZU-275]	1	–
C=C(CN1CCC(Cn2c(=O)[nH]c3c(N)nc(OCCCC)nc32)CC1)C(=O)O [KJ-099]	420	–
C=C(CN(CCCCc1cn(CCOCCOCCOCCn2cc(Cn3c(=O)[nH]c4c(N)nc(OCCCC)nc43)nn2)nn1)C[C@H](C)c1ccc(-c2c(O)cc(C)c3[nH]c(=O)c4sccc4c23)cc1)C(=O)NCCCCCCNC(=O)[C@@H](CCCCn1cc(COCCOCCOCCN=C=S)nn1)NC(=O)CCC(=O)NCc1ccc(Cn2c(=O)[nH]c3c(N)nc(OCCOC)nc32)cc1 [Compound K64]	10	–
C=C(CC(=O)O)C(=O)NCc1ccc(Cn2c(=O)[nH]c3c(N)nc(OCCOC)nc32)cc1 [KJ-138]	50	–
C=C(CN1CCC(Cn2c(=O)[nH]c3c(N)nc(OCCCC)nc32)CC1)C(=O)OCC [KJ-098]	310	–
C=C(CN1CCC(n2cc(Cn3c(=O)n(COC(=O)OCCOCCOCCOCCNC(=O)CCC(=O)N4Cc5ccccc5C#Cc5ccccc54)c4c(N)nc(O[C@@H](C)CCC)nc43)nn2)CC1)C(=O)OCC [Compound K55]	–	EC50 [3]: 21 nM
COCCOc1nc(N)c2[nH]c(=O)n(Cc3ccc(CNC(=O)CCC(=O)NC(CCCCNC(=O)OCc4ccc(NC(=O)[C@H](CCCNC(N)=O)NC(=O)[C@@H](NC(=O)CCCCCN5C(=O)C=CC5=O)C(C)C)cc4)C(=O)NCCOCCOCCOCCNC(=O)OC4CC/C=C/CCC4)cc3)c2n1 (stereo partly shown) [Compound K30]	59	–
C=CC(=O)Nc1cc(Nc2nccc(-c3cn(C)c4ccccc34)n2)c(OC)cc1N(C)CCN(C)CCCCCCNC(=O)[C@@H](CCCCn1cc(COCCOCCOCCOCCNC(=O)CCC(=O)N2Cc3ccccc3C#Cc3ccccc32)nn1)NC(=O)COCCOCCOCCn1cc(Cn2c(=O)[nH]c3c(N)nc(OCCCC)nc32)nn1 [Compound K36]	110	–
C=C(CC)C(=O)c1ccc(OCC(=O)NCc2ccc(Cn3c(=O)n(COC(=O)OCc4ccc(NC(=O)[C@H](C)NC(=O)[C@@H](NC(=O)CCOCCOCCOCCOCCNC(=O)CCC(=O)N5Cc6ccccc6C#Cc6ccccc65)C(C)C)cc4)c4c(N)nc(OCCOC)nc43)cc2)c(Cl)c1Cl [Compound K60]	–	EC50 [3]: 90 nM
CCOC(=O)NC(=S)n1c(=O)n(Cc2ccc(CNC(=O)CCc3cn(CCOCCOCCOCCNC(=O)CCN4C(=O)C=CC4=O)nn3)cc2)c2nc(OCCOC)nc(N)c21 [Compound K15]	–	EC50 [2]: 12 nM
C=C(CN1CCC(Cn2c(=O)[nH]c3c(N)nc(OCCCC)nc32)CC1)C(=O)NCCOCCOCCOCCOCCNC(=O)CCC(=O)N1Cc2ccccc2C#Cc2ccccc21 [Compound K50]	23	–
